Holding throughout (assay): NCI tumour cell line growth inhibition, 48 h
In experiment [1] the test system is HOP-92.
Experiment [2] deals with RPMI-8226.
Experiment [3] relates to COLO 205.
Experiment [4] has as its system SN12C.
Experiment [5] has as its system IGROV-1.
Experiment [6] deals with HT-29.
The subject of experiment [7] is M14.
Experiment [8] relates to HOP-62.
For experiment [9], the system named is 786-0.
Experiment [10] concerns SF-539.
Experiment [11] relates to NCI-H460.
The test system of experiment [12] is KM12.
The test system of experiment [13] is MOLT-4.
Experiment [14] relates to CAKI-1.
In experiment [15] the test system is HL-60.
Experiment [16] has as its system NCI-H522.
Experiment [17] has as its system MDA-MB-231.
Experiment [18] concerns OVCAR-8.
Experiment [19] concerns SK-MEL-28.
In experiment [20] the test system is CCRF-CEM.

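In this assay, cells in 96-well plates receive the compound at five concentrations for 48 hours. Endpoints are linearly interpolated between the surrounding concentrations. GI50 = concentration required for 50% inhibition of growth.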 Activity calls are given as the source filed them. No stated cut-off is given here; in the data, active = GI50 up to about 1.1 µM and inactive = higher.

For `COc1cc(Cn2c3c(c4cc(O)ccc42)C(=O)c2ccccc2C3=O)cc(OC)c1`, the GI50 in experiment [1] was 1.85 µM (inactive); in [2], 0.337 µM (active); in experiment [3] it was 12.6 µM (inactive); in experiment [4] it was 5.09 µM (inactive); in [5] it was 2.11 µM (inactive); in experiment [6], 4.1 µM (inactive). For the same compound, the GI50 in experiment [7] is 16.3 µM (inactive); in experiment [8], 2.77 µM (inactive); in experiment [9], 2.37 µM (inactive); in experiment [10], 2.05 µM (inactive); in [11], 5.61 µM (inactive); in [12] it was 2.43 µM (inactive). In addition, the GI50 in experiment [13] is 16.3 µM (inactive); in experiment [14], 15.2 µM (inactive); in experiment [15], 13.7 µM (inactive); in experiment [16], 2.43 µM (inactive); in experiment [17], 5.32 µM (inactive); in [18], 3.55 µM (inactive). The GI50 in [19] was 7.96 µM (inactive).
Regarding `O=C(O)CCCc1ccc2c(c1)C(C(=O)O)CC2` (stereo not given), the GI50 in experiment [20], in experiment [2], in [3], in [4], in experiment [5] and in experiment [6] was > 100 µM (inactive) each time. In addition, the GI50 in [7], in [8], in experiment [9], in [10], in experiment [11] and in [12] was > 100 µM (inactive) each time. In addition, the GI50 in [13], in [14], in experiment [15], in experiment [16], in experiment [17] and in experiment [18] was > 100 µM (inactive) in each case. In addition, in experiment [19], the GI50 was > 100 µM (inactive).
As to `COc1ccc2c(c1)CCc1c(-c3noc4c3CCc3cc(OC)ccc3-4)noc1-2`, the GI50 in experiment [1], in [2], in [3], in experiment [4], in experiment [5] and in experiment [6] was > 100 µM (inactive) each time. Also, the GI50 in experiment [7], in experiment [8], in experiment [9], in experiment [10], in experiment [11] and in [12] was > 100 µM (inactive) throughout. The GI50 in [13], in experiment [14], in [15], in experiment [16], in [17] and in experiment [18] was > 100 µM (inactive) in each case. Further, in experiment [19], the GI50 is > 100 µM (inactive).
With `COC(=O)/C=C(\C(=O)OC)C1C(=O)Oc2c(C)c(=O)c3ccccc3n21` (stereo not given), the GI50 in experiment [20], in [2], in experiment [3], in experiment [4], in experiment [5] and in [6] was > 100 µM (inactive) in each case. Further, the GI50 in [7], in experiment [8], in [9], in experiment [10], in experiment [11] and in experiment [12] was > 100 µM (inactive) in each case. Also, the GI50 in [13], in experiment [14], in [15], in experiment [16], in experiment [17] and in experiment [18] was > 100 µM (inactive) each time. In [19], the GI50 was > 100 µM (inactive).
`CC1(C)N=C(/C(Cl)=[N+](/[O-])C(=O)c2ccc(F)cc2)C(C)(C)N1O`: the GI50 in [1] is 24.5 µM (inactive); in experiment [20], 0.466 µM (active); in experiment [2] it was 14.2 µM (inactive); in [3], 18.5 µM (inactive); in experiment [4], 15.8 µM (inactive); in experiment [5], 19.5 µM (inactive). The GI50 in experiment [6] was 19.9 µM (inactive); in [7], 16.1 µM (inactive); in experiment [8], 19.6 µM (inactive); in experiment [9], 14.6 µM (inactive); in experiment [10] it was 23.7 µM (inactive); in [11], 31.9 µM (inactive). Also, the GI50 in [12] was 26.2 µM (inactive); in [14] it was 20.2 µM (inactive); in experiment [15] it was 10.8 µM (inactive); in experiment [17] it was 16.8 µM (inactive); in experiment [18], 17.5 µM (inactive); in experiment [19], 15.8 µM (inactive).
With `CC1(C)[C@@H]2C[C@H]1C(Cc1cccc(C[C@H]3c4cc(-c5ccccn5)ncc4[C@H]4C[C@@H]3C4(C)C)c1)c1cc(-c3ccccn3)ncc12` (stereo not given in full), the GI50 in experiment [20] is 0.337 µM (active); in experiment [2] it was 1.39 µM (inactive); in experiment [3], 0.452 µM (active); in experiment [4], 0.834 µM (active); in [5], 0.452 µM (active); in [6] it was 0.951 µM (active). For the same compound, the GI50 in experiment [7] is 0.485 µM (active); in [8], 1.28 µM (inactive); in experiment [9], 0.32 µM (active); in experiment [10] it was 1.28 µM (inactive); in [11], 0.689 µM (active); in [12], 0.647 µM (active). Besides, the GI50 in experiment [13] was 0.312 µM (active); in [14], 1.74 µM (inactive); in [15] it was 0.295 µM (active); in experiment [16], 1.63 µM (inactive); in [17] it was 22.6 µM (inactive); in experiment [18], 0.478 µM (active). The GI50 in experiment [19] was 4.93 µM (inactive).
As to `O=C(O)c1ccccc1/C=C1/Nc2ccccc2C1=O`, the GI50 in [1] is > 100 µM (inactive); in experiment [20] it was 44.9 µM (inactive); in experiment [2], > 100 µM (inactive); in experiment [3] it was > 100 µM (inactive); in experiment [4] it was > 100 µM (inactive); in experiment [5], 24.2 µM (inactive). Besides, the GI50 is 67.9 µM (inactive) in experiment [6]; > 100 µM (inactive) in [7]; > 100 µM (inactive) in [8]; > 100 µM (inactive) in experiment [9]; 92.9 µM (inactive) in experiment [10]; 32.9 µM (inactive) in [11]. The GI50 was 37.9 µM (inactive) in experiment [12]; 91.4 µM (inactive) in experiment [13]; > 100 µM (inactive) in experiment [14]; 64 µM (inactive) in experiment [15]; > 100 µM (inactive) in [17]; > 100 µM (inactive) in [18]. Further, in [19], the GI50 is > 100 µM (inactive).
As for `O=[N+]([O-])c1ncc(N(CCO)CCO)s1`, the GI50 in experiment [20] is 22.8 µM (inactive); in [2], 19.5 µM (inactive); in [3], 21.9 µM (inactive); in [4], 41.4 µM (inactive); in experiment [6], 49.7 µM (inactive); in experiment [7], 34.8 µM (inactive). In addition, the GI50 in experiment [8] was 42.9 µM (inactive); in experiment [9], 34 µM (inactive); in [10], 14.4 µM (inactive); in experiment [11], 61.2 µM (inactive); in experiment [12] it was > 100 µM (inactive); in experiment [13], 36.6 µM (inactive). The GI50 was > 100 µM (inactive) in experiment [14]; 17.7 µM (inactive) in experiment [15]; 16.4 µM (inactive) in experiment [16]; 67.8 µM (inactive) in experiment [17]; 53.5 µM (inactive) in [18]; 16.4 µM (inactive) in experiment [19].

Values taken from ChEMBL document CHEMBL1201862, “PubChem BioAssay data set” (2004).
